Data on 5 compounds can be found in article PMC8640510 (Cell Death and Differentiation, 2021).

The assay concerns the target SARS-CoV-2 NSP14/10 complex (ExoN activity) (Severe acute respiratory syndrome coronavirus 2, UniProt P0DTD1). The experiment in a line: biochemical. In kind it is biochemical.

“Also recorded” adds a separate entry of the source.

On to `Cc1ccc2ccc(C(=O)O)c(O)c2n1` [#38], for which the “NSP14/10-inhibitory activity (in words)” value is “no observed inhibition; also recorded: does not inhibit NSP14”.

Take `CC(C)=CCc1c(O)ccc(C(=O)/C=C/c2ccc(O)cc2)c1O` [#96, Isobavachalcone]: the midpoint of inhibition, the IC50, lay at 17.4 ± 1.39 µM.

In turn, `CC(C)=CCOc1ccc(/C=C/C(=O)c2ccc(OCC=C(C)C)cc2OCC(=O)O)cc1` [#102, Sofalcone, reference compound] gave an IC50 of 22 ± 6.02 µM.

As for `C[C@@H]1CCO[C@H]2Cn3cc(C(=O)NCc4ccc(F)cc4F)c(=O)c(O)c3C(=O)N12` [Dolutegravir, reference compound], the “NSP14/10-inhibitory activity (in words)” value is listed as “detectable NSP14/10-inhibitory activities”.

For `O=C1Cc2ccccc2C(=O)N1O` [N-Hydroxy-isoquinoline-1,3-dione, reference compound], the “NSP14/10-inhibitory activity (in words)” value is “detectable NSP14/10-inhibitory activities”.
